Measured values taken from patent publication US12421210B2, “Fused bicyclic heterocycles as therapeutic agents” (NEW YORK UNIVERSITY, priority 2018, dated 2025).

Molecular target: human NAMPT enzyme (His-hNAMPT) (Homo sapiens (Human), UniProt P43490)
Experiment: NAMPT enzymatic inhibition assay (fluorescence, NADH product)
Type: biochemical
Conditions: [BPS]; read-out: NAMPT IC50 (μM) [BPS]

Sequence of human NAMPT enzyme (His-hNAMPT) (P43490 whole entry): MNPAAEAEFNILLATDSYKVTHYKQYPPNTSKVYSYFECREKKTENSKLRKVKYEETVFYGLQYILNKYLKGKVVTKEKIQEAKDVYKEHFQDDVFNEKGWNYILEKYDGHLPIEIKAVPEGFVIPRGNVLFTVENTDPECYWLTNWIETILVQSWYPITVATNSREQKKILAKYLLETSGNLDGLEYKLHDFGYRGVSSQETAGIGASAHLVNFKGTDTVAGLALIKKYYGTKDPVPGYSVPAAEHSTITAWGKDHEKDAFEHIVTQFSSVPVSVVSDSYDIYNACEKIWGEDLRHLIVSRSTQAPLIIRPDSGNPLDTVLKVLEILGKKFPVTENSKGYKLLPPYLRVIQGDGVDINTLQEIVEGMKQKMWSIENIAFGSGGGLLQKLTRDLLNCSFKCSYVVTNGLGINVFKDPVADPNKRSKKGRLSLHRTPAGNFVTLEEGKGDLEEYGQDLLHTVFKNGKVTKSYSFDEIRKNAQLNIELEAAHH

SMILES | IC50 [µM]
CC(C)(C)NC(=O)N1C[C@@H]2[C@@H](CCNC(=O)c3cc(-c4cccnc4)on3)[C@@H]2C1 [Example 81, N-(2-((1R,5S,6s)-3-(tert-butylcarbamoyl)-3-azabicyclo[3.1.0]hexan-6-yl)ethyl)-5-(pyridin-3-yl)isoxazole-3-carboxamide] | < 0.01
CC(=O)NCC[C@@H]1[C@H]2CN(C(=O)OC(C)(C)C)C[C@@H]12 [Example 14, (1R,5S,6s)-tert-butyl 6-(2-azetamidoethyl)-3-azabicyclo[3.1.0]hexane-3-carboxylate] | > 30
CC(C)(C)OC(=O)N1C[C@H]2CCC(CNC(=O)N3Cc4ccncc4C3)C[C@H]2C1 (stereo in doubt) [Example 270, tert-butyl 5-((2,3-dihydro-1H-pyrrolo[3,4-c]pyridine-2-carboxamido)methyl)hexahydro-1H-isoindole-2(3H)-carboxylate] | 0.01 to 0.49
O=C(NCC[C@@H]1[C@H]2CN(c3ncc4ccccc4n3)C[C@@H]12)c1cc2ccncc2o1 [Example 122, N-(2-((1R,5S,6s)-3-(quinazolin-2-yl)-3-azabicyclo[3.1.0]hexan-6-yl)ethyl)furo[2,3-c]pyridine-2-carboxamide] | 0.01 to 0.49
Nc1ccc(/C=C/C(=O)NCC[C@@H]2[C@H]3CN(S(=O)(=O)C4CCOCC4)C[C@@H]23)cn1 [Example 47, (E)-3-(6-aminopyridin-3-yl)-N-(2-((1R,5S,6s)-3-((tetrahydro-2H-pyran-4-yl)sulfonyl)-3-azabicyclo[3.1.0]hexan-6-yl)ethyl)acrylamide] | 0.01 to 0.49
O=C(NCC[C@@H]1[C@H]2CN(C(=O)c3ccc(F)cc3)C[C@@H]12)c1cc(-c2cccnc2)on1 [Example 110, N-(2-((1R,5S,6s)-3-(4-fluorobenzoyl)-3-azabicyclo[3.1.0]hexan-6-yl)ethyl)-5-(pyridin-3-yl)isoxazole-3-carboxamide] | 0.01 to 0.49
Nc1ccc(/C=C/C(=O)NCC[C@@H]2[C@H]3CN(c4ncccn4)C[C@@H]23)cn1 [Example 189, (E)-3-(6-aminopyridin-3-yl)-N-(2-((1R,5S,6s)-3-(pyrimidin-2-yl)-3-azabicyclo[3.1.0]hexan-6-yl)ethyl)acrylamide] | 0.01 to 0.49
CC(C)(C)OC(=O)N1C[C@@H]2[C@@H](CCNC(=O)c3cc4ccncc4o3)[C@@H]2C1 [Example 5] | 0.01 to 0.49
Nc1ccc(/C=C/C(=O)NCC[C@@H]2[C@H]3CN(S(=O)(=O)C4CCCC4)C[C@@H]23)cn1 [Example 48, (E)-3-(6-aminopyridin-3-yl)-N-(-2 ((1R,5S,6s)-3-(cyclopentylsulfonyl)-3-azabicyclo[3.1.0]hexan-6-yl)ethyl)acrylamide] | 0.01 to 0.49
Cc1nc(C)c(C(=O)N2C[C@@H]3[C@@H](CCNC(=O)c4cnc5nccn5c4)[C@@H]3C2)o1 [Example 108, N-(2-((1R,5S,6s)-3-(2,4-dimethyloxazole-5-carbonyl)-3-azabicyclo[3.1.0]hexan-6-yl)ethyl)imidazo[1,2-a]pyrimidine-6-carboxamide] | 0.01 to 0.49
CC(C)(C)OC(=O)N1C[C@@H]2[C@@H](CNC(=O)COc3cccnc3)[C@@H]2C1 [Example 233, (1R,5S,6s)-tert-butyl 6-((2-(pyridin-3-yloxy)acetamido)methyl)-3-azabicyclo[3.1.0]hexane-3-carboxylate] | > 30
O=C(NCC[C@@H]1[C@H]2CN(C(=O)Nc3ccccc3)C[C@@H]12)c1ccc2nccn2c1 [Example 65, N-(2-((1R,5S,6s)-3-(phenylcarbamoyl)-3-azabicyclo[3.1.0]hexan-6-yl)ethyl)imidazo[1,2-a]pyridine-6-carboxamide] | 1 to 29
CC(C)(C)OC(=O)N1C[C@@H]2[C@@H](CCNC(=O)c3ccc4sccc4c3)[C@@H]2C1 [Example 6, (1R,5S,65s)-tert-butyl 6-(2-(benzo[b]thiophene-5-carboxamido)ethyl)-3-azabicyclo[3.1.0]hexane-3-carboxylate] | 0.01 to 0.49
CC1(OC(=O)N2C[C@@H]3[C@@H](CCNC(=O)c4cc5ccncc5o4)[C@@H]3C2)COC1 [Example 27, (1R,5S,6s)-3-methyloxetan-3-yl 6-(2-(furo[2,3-c]pyridine-2-carboxamido)ethyl)-3-azabicyclo[3.1.0]hexane-3-carboxylate] | 0.01 to 0.49
Cc1nc(C)c(C(=O)N2C[C@@H]3[C@@H](CCNC(=O)c4cc(-c5cccnc5)on4)[C@@H]3C2)o1 [Example 111, N-(2-((1R,5S,6s)-3-(2,4-dimethyloxazole-5-carbonyl)-3-azabicyclo[3.1.0]hexan-6-yl)ethyl)-5-(pyridin-3-yl)isoxazole-3-carboxamide] | 0.01 to 0.49

Same assay, conditions: [HDB]; read-out: NAMPT IC50 (μM) [HDB]

SMILES | IC50 [µM]
O=C(/C=C/c1cccnc1)NCC[C@@H]1[C@H]2CN(c3ccnc(C(F)(F)F)c3)C[C@@H]12 [Example 159, (E)-3-(pyridin-3-yl)-N-(2-((1R,5S,6s)-3-(2-(trifluoromethyl)pyridin-4-yl)-3-azabicyclo[3.1.0]hexan-6-yl)ethyl)acrylamide] | < 0.01
O=C(/C=C/c1cccnc1)NCC[C@@H]1[C@H]2CN(c3ccnc(OC(F)F)c3)C[C@@H]12 [Example 299, (E)-N-(2-((1R,5S,6s)-3-(2-(difluoromethoxy)pyridin-4-yl)-3-azabicyclo[3.1.0]hexan-6-yl)ethyl)-3-(pyridin-3-yl)acrylamide] | < 0.01
O=C(/C=C/c1cccnc1)NCC[C@@H]1[C@H]2CN(Cc3ccccc3)C[C@@H]12 [Example 243, (E)-N-(2-((1R,5S,6s)-3-benzyl-3-azabicyclo[3.1.0]hexan-6-yl)ethyl)-3-(pyridin-3-yl)acrylamide] | 0.01 to 0.49
COc1nc(N2C[C@@H]3[C@@H](CCNC(=O)/C=C/c4cccnc4)[C@@H]3C2)ncc1F [Example 173, (E)-N-(2-((1R,5S,6s)-3-(5-fluoro-4-methoxypyrimidin-2-yl)-3-azabicyclo[3.1.0]hexan-6-yl)ethyl)-3-(pyridin-3-yl)acrylamide] | 0.01 to 0.49
O=C(NCC[C@@H]1[C@H]2CN(c3ccccc3)C[C@@H]12)c1cc(-c2cccnc2)on1 [Example 134, N-(2-((1R,5S,6s)-3-phenyl-3-azabicyclo[3.1.0]hexan-6-yl)ethyl)-5-(pyridin-3-yl)isoxazole-3-carboxamide] | < 0.01
O=C(/C=C/c1cccnc1)NCC[C@@H]1[C@H]2CN(c3ccc(Cl)cc3)C[C@@H]12 [Example 146, (E)-N-(2-((1R,5S,6s)-3-(4-chlorophenyl)-3-azabicyclo[3.1.0]hexan-6-yl)ethyl)-3-(pyridin-3-yl)acrylamide] | 0.01 to 0.49
O=C(/C=C/c1cccnc1)NCC[C@@H]1[C@H]2CN(c3ccc4c(c3)C(=O)NC4)C[C@@H]12 [Example 156, (E)-N-(2-((1R,5S,6s)-3-(3-oxoisoindolin-5-yl)-3-azabicyclo[3.1.0]hexan-6-yl)ethyl)-3-(pyridin-3-yl)acrylamide] | 0.01 to 0.49
O=C(/C=C/c1cccnc1)NCC[C@@H]1[C@H]2CN(c3ccc4c(c3)CNC4=O)C[C@@H]12 [Example 157, (E)-N-(2-((1R,5S,6s)-3-(1-oxoisoindolin-5-yl)-3-azabicyclo[3.1.0]hexan-6-yl)ethyl)-3-(pyridin-3-yl)acrylamide] | < 0.01
O=C(NCC[C@@H]1[C@H]2CN(c3nc(Cl)ncc3F)C[C@@H]12)c1cc2ccncc2o1 [Example 221, N-(2-((1R,5S,6s)-3-(2-chloro-5-fluoropyrimidin-4-yl)-3-azabicyclo[3.1.0]hexan-6-yl)ethyl)furo[2,3-c]pyridine-2-carboxamide] | 0.01 to 0.49
O=C(/C=C/c1cccnc1)NCC[C@@H]1[C@H]2CN(Cc3ccc(Cl)cc3)C[C@@H]12 [Example 302, (E)-N-(2-((1R,5S,6s)-3-(4-chlorobenzyl)-3-azabicyclo[3.1.0]hexan-6-yl)ethyl)-3-(pyridin-3-yl)acrylamide] | 0.01 to 0.49
CC(C)(C)OC(=O)N1C[C@@H]2[C@@H](CNC(=O)COc3cccnc3)[C@@H]2C1 [Example 233, (1R,5S,6s)-tert-butyl 6-((2-(pyridin-3-yloxy)acetamido)methyl)-3-azabicyclo[3.1.0]hexane-3-carboxylate] | 1 to 29
O=C(/C=C/c1cccnc1)NCC[C@@H]1[C@H]2CN(c3ccncn3)C[C@@H]12 [Example 168, (E)-3-(pyridin-3-yl)-N-(2-((1R,5S,6s)-3-(pyrimidin-4-yl)-3-azabicyclo[3.1.0]hexan-6-yl)ethyl)acrylamide] | 0.01 to 0.49
O=C(/C=C/c1cccnc1)NCC[C@H]1[C@H]2CN(c3ccccc3)C[C@@H]12 [Example 281, (E)-N-(2-((1R,5S,6r)-3-phenyl-3-azabicyclo[3.1.0]hexan-6-yl)ethyl)-3-(pyridin-3-yl)acrylamide] | 0.01 to 0.49
COc1ccc(/C=C/C(=O)NCC[C@@H]2[C@H]3CN(c4nc(Cl)ncc4F)C[C@@H]23)cn1 [Example 212, (E)-N-(2-((1R,5S,6s)-3-(2-chloro-5-fluoropyrimidin-4-yl)-3-azabicyclo[3.1.0]hexan-6-yl)ethyl)-3-(6-methoxypyridin-3-yl)acrylamide] | 0.01 to 0.49
O=C(/C=C/c1cccnc1)NCC[C@@H]1[C@H]2CN(Cc3ncccn3)C[C@@H]12 [Example 294, (E)-3-(Pyridin-3-yl)-N-(2-((1R,5S,6s)-3-(pyrimidin-2-ylmethyl)-3-azabicyclo[3.1.0]hexan-6-yl)ethyl)acrylamide] | 0.01 to 0.49
COc1cc(N2C[C@@H]3[C@@H](CCNC(=O)/C=C/c4ccc(N)nc4)[C@@H]3C2)ccn1 [Example 339, (E)-3-(6-aminopyridin-3-yl)-N-(2-((1R,5S,6s)-3-(2-methoxypyridin-4-yl)-3-azabicyclo[3.1.0]hexan-6-yl)ethyl)acrylamide] | 0.01 to 0.49
O=C(/C=C/c1cccnc1)NCC[C@@H]1[C@H]2CN(Cc3ccc(C(F)(F)F)cc3)C[C@@H]12 [Example 244, (E)-3-(pyridin-3-yl)-N-(2-((1R,5S,6s)-3-(4-(trifluoromethyl)benzyl)-3-azabicyclo[3.1.0]hexan-6-yl)ethyl)acrylamide] | 0.01 to 0.49
O=C(/C=C/c1cccnc1)NCC[C@@H]1[C@H]2CN(c3nc(N4CCC(O)C4)ncc3F)C[C@@H]12 (stereo partly drawn) [Example 326, (E)-N-(2-((1R,5S,6s)-3-(5-fluoro-2-(3-hydroxypyrrolidin-1-yl)pyrimidin-4-yl)-3-azabicyclo[3.1.0]hexan-6-yl)ethyl)-3-(pyridin-3-yl)acrylamide] | < 0.01
CC(=O)Nc1cccc(N2C[C@@H]3[C@@H](CCNC(=O)/C=C/c4cccnc4)[C@@H]3C2)c1 [Example 184, (E)-N-(2-((1R,5S,6s)-3-(3-acetamidophenyl)-3-azabicyclo[3.1.0]hexan-6-yl)ethyl)-3-(pyridin-3-yl)acrylamide] | 0.01 to 0.49
